Here are results for 10 compounds from article PMC4841542, “New Anti-Inflammatory Metabolites by Microbial Transformation of Medrysone” (PLoS ONE, 2016).

Series [1] has as its system zymosan activated PMNs (human whole blood cells). In words: Oxidative burst inhibition assay (luminol-enhanced chemiluminescence, zymosan-activated). Particulars: for IC50: Whole blood cell, zymosan activated PMNs / human whole blood, tested at 1, 10, 100 μg/mL, mean ± SD of triplicates. The class given is cell-based. On the procedure:
Oxidative burst assay was carried out by chemiluminescence technique using luminol as a probe to determine the effect of test compounds on the production of reactive oxygen species (ROS) from phagocytes, employing […] et al. method with slight modifications. […] Louis, MO, USA) and 25 μL ([…]) of luminol (Sigma Chemical Co., St. Louis, MO, USA). HBSS^++ alone was run as a negative control. The level of ROS was measured as RLU (relative light units) with a luminometer (Labsystem Luminoskan RS, Finland). The luminometer was used in repeated scan mode with 50 seconds interval, and one second point measuring time.

The test system of series [2] is TNF-α produced by LPS activated THP-1 cells. The series is described as follows: Cytokine inhibition assay (TNF-α ELISA). The class given is cell-based, human. Conditions: for inhibition at 25 µg/mL: Homo sapiens, read-out: TNF-α % inhibition. The text has this: THP-1 (Human monocytic leukemia cells) was purchased from ECACC (85011428, European Collection of Cell Cultures, UK). The cells were maintained in endotoxin free RPMI-1640 containing 5.5 mmol/L glucose (BioM Laboratories, Chemical Division, Malaysia), 50 μmol/L mercaptoethanol Merck (Damstadt, Germany), 10% FBS (fetal bovine serum), 2 mmol/L L-glutamine (PAA Laboratories, GmbH, Pasching, Austria), 1 mmol/L sodium pyruvate (GIBCO, Grand Island, N.Y., U.S.A.), and 10 mmol/L HEPES (MP Biomedicals, lllkirch, France). Upon reaching 70% confluency, 2.5×10^5 cells/mL cells were plated in 24 well tissue culture plates. The cells were differentiated using 20 ng/mL phorbol myristate acetate (PMA) (SERVA, Heidelberg, Germany) for 24 hours. The cells were stimulated by adding 50 ng/mL of Escherichia coli lipopolysaccharide B (DIFCO Laboratories, U.S.A.) and treated with compound (25 μg/mL). The incubation was continued for 4 hours at 37°C in 5% CO2. The supernatants collected were analyzed for the level of pro-inflammatory cytokine TNF-α, and quantification was performed by human TNF-α kit (R&D Systems, Minneapolis, U.S.A.), according to manufacturer’s instructions.
For orientation: An ELISA detects its analyte on a solid surface through an enzyme-linked reagent.

The subject of another series is PHA activated T-cells. The series is described as follows: T-cell proliferation inhibition assay (PBMC, tritiated thymidine). Type of series: cell-based, human. Particulars: for IC50: T-cell; for Inhibition of T-cell proliferation (in words): PHA activated T-cells. On the procedure:
The T-Cell proliferation inhibitory activity of compounds was evaluated by following the reported method of Nielsen et al. (1998) with slight modifications. Peripheral blood mononuclear cells (PBMC) were isolated from healthy human donors with their consent by Ficoll-Hypaque density gradient centrifugation. The study was carried out after approval from independent ethics committee, ICCBS-UoK, No: ICCBS/IEC-008-BC-2015/Protocol/1.0.
The cells were adjusted to a final concentration of 2 × 10^6 cells/mL in 5% FBS (fetal bovine serum) containing RPMI 1640 media and added with 5 μg/mL phytohemagglutinin (PHA) in 96-well round bottom plates. Each compound was added in triplicate using four concentrations (0.2, 1, 5, and 25 μg/mL). Positive control wells contained cells and PHA, whereas cells alone served as a negative control. The plate was incubated in 5% CO2 at 37°C for 72 h, and cells were pulsed with 25 μL of tritiated thymidine (0.5 μci/well). The incubation was continued for further 18 h. The cells were finally harvested on a glass fiber filter, and the plate was read as count per minute (CPM) using β-scintillation counter.

The mark [3] stands for this setting: Homo sapiens, read-out: IC50, PHA activated T-cells proliferation, human PBMC, 5 μg/mL PHA, tested at 0.2, 1, 5, 25 μg/mL, mean ± SD of triplicates.
Setting [4] is: human PBMC, 5 μg/mL PHA, tested at 0.2, 1, 5, 25 μg/mL, mean ± SD of triplicates, read-out: IC50, PHA activated T-cells proliferation.

≈ marks a conversion by molar mass, not a printed value. Entries after “also recorded” stand apart in the source; their conditions may differ. Where two headings read alike, the source gives them in different places. Bounds are passed on as bounds.

In the case of `CC(=O)[C@H]1C[C@@H](O)[C@H]2[C@@H]3C[C@H](C)C4=CC(=O)CC[C@]4(C)[C@H]3C(=O)C[C@@]21C` [Compound 4, 15β-Hydroxy-6α-methylpregn-4-ene-3,11,20-trione], the melting point was 185 to 186 °C. Besides, the IC50 in series [1] is > 100 µg/mL. The inhibition at 25 µg/mL in series [2] (THP-1, 4 h) was -7.49 ± 1.27%. Moreover, in the series with PHA activated T-cells (setting [3]), the IC50 was 9.2 ± 0.7 µg/mL (≈ 25.7 µM). For the same compound, the “Inhibition of T-cell proliferation (in words)” value in the series on PHA activated T-cells is reported as “strongly inhibited; also recorded: strong inhibitory activity”.
On to `CC(=O)[C@H]1CC[C@H]2[C@@H]3C[C@@](C)(O)C4=CC(=O)CC[C@]4(C)[C@H]3C(=O)C[C@]12C` [Compound 3, 6β-Hydroxy-6α-methylpregn-4-ene-3,11,20-trione], for which the figures for the IC50 (in series [1]; with PHA activated T-cells (setting [3])) were > 100 µg/mL and 14.6 ± 2.1 µg/mL (≈ 40.7 µM), respectively. For the same compound, the inhibition at 25 µg/mL in series [2] (THP-1, 4 h) was -2.69 ± 5.08%. Besides, the “Inhibition of T-cell proliferation (in words)” value in the series with PHA activated T-cells is “moderate inhibitors”.
On to `CC(C)Cc1ccc(C(C)C(=O)O)cc1` (stereo not shown) [Ibuprofen, reference compound], for which, in series [1], the IC50 is 2.5 ± 0.6 µg/mL.
As for `CC(=O)[C@H]1[C@@H](O)C[C@H]2[C@@H]3C[C@H](C)C4=CC(=O)CC[C@]4(C)[C@H]3[C@@H](O)C[C@@]21C` [Compound 7], the IC50 in series [1] is > 100 µg/mL; in the series on PHA activated T-cells (setting [3]), 0.2 to 10.4 µg/mL (≈ 0.555 to 28.8 µM). Moreover, the inhibition at 25 µg/mL in series [2] (THP-1, 4 h) is 28.6 ± 11.5%. For the same compound, in series [2] (LPS activated THP-1 cells), the “Inhibition of TNF-α production (in words)” value is reported as “inhibit; also recorded: moderate levels of inhibition”. Further, the “Inhibition of T-cell proliferation (in words)” value in the series on PHA activated T-cells was “strongly inhibited; also recorded: strong inhibitory activity”. The “IC50, PHA activated T-cells proliferation” value in the series on PHA activated T-cells (human PBMC, 5 μg/mL PHA, tested at 0.2, 1, 5, 25 μg/mL, mean ± SD of triplicates) was <0.2 µg/mL.
`CC(=O)[C@@]1(O)CC[C@H]2[C@@H]3C[C@@](C)(O)C4=CC(=O)CC[C@]4(C)[C@H]3C(=O)C[C@@]21C` [Compound 5, 6β,17α-Dihydroxy-6α-methylpregn-4-ene-3,11,20-trione] gave a melting point of 289 to 291 °C. For the same compound, the IC50 in series [1] was > 100 µg/mL. The inhibition at 25 µg/mL in series [2] (THP-1, 4 h) was 6.44 ± 0.21%. In the series on PHA activated T-cells (setting [3]), the IC50 is 1.2 ± 0.02 µg/mL (≈ 3.2 µM). Also, the “Inhibition of T-cell proliferation (in words)” value in the series with PHA activated T-cells was “strongly inhibited; also recorded: strong inhibitory activity”.
In the case of `CC(O)C1CCC2C3CC(C)(O)C4=CC(=O)CCC4(C)C3C(=O)CC12C` (stereo not drawn) [Compound 6, 6β,20S-Dihydroxy-6α-methylpregn-4-ene-3,11-dione], the melting point lay within 229 to 230 °C. In addition, the IC50 in series [1] worked out at 30.3 ± 8.8 µg/mL. In addition, the “Inhibition of oxidative burst / ROS (in words)” value in series [1] (zymosan-induced, human whole blood cells / PMNs) is reported as “moderate inhibitory activity”. The inhibition at 25 µg/mL in series [2] (THP-1, 4 h) turned out to be 4.4 ± 9.6%. In addition, the IC50 with PHA activated T-cells (setting [3]) came out at 15.2 ± 2.4 µg/mL (≈ 42.2 µM). For the same compound, in the series on PHA activated T-cells, the “Inhibition of T-cell proliferation (in words)” value is recorded as “moderate inhibitors”.
`C[C@H]1C[C@H]2[C@@H]3[C@H](O)C[C@H]([C@@H](C)O)[C@@]3(C)CC(=O)[C@@H]2[C@@]2(C)CCC(=O)C=C12` [Compound 8, 15β,20R-Dihydroxy-6α-methylpregn-4-ene-3,11-dione] displayed a melting point of 274 to 275 °C. Besides, in series [1], the IC50 was > 100 µg/mL. Moreover, in series [2] (THP-1, 4 h), the inhibition at 25 µg/mL is -8.23 ± 2.75%. Further, the IC50 in the series on PHA activated T-cells (setting [3]) came out at 10.4 ± 0.42 µg/mL (≈ 28.8 µM). Further, in the series on PHA activated T-cells, the “Inhibition of T-cell proliferation (in words)” value is “strongly inhibited; also recorded: strong inhibitory activity”.
The matching figures for `CC(=O)[C@H]1CC[C@@]2(O)[C@@H]3C[C@H](C)C4=CC(=O)CC[C@]4(C)[C@H]3C(=O)C[C@]12C` [Compound 2, 14α-Hydroxy-6α-methylpregn-4-ene-3,11,20-trione]: 209 to 210 °C, > 100 µg/mL, -4.04 ± 0.2%, 20 ± 0.9 µg/mL (≈ 55.8 µM) and “moderate inhibitors”.
As for `CC(=O)[C@H]1CC[C@H]2[C@@H]3C[C@H](C)C4=CC(=O)CC[C@]4(C)[C@H]3[C@@H](O)C[C@]12C` [Compound 1, 11β-hydroxy-6α-methylpregn-4-ene-3,20-dione, reference compound], the IC50 in series [1] is > 100 µg/mL; in the series with PHA activated T-cells (setting [4]), 2.9 ± 0.04 µg/mL (≈ 8.42 µM). Besides, in series [2] (compound 25 μg/mL, LPS activated THP-1 cells, 4 h, mean ± SD of triplicates, -ve sign = increase in cytokine level), the inhibition at 25 µg/mL stood at 30.5 ± 1.69%. Also, in series [2] (LPS activated THP-1 cells), the “Inhibition of TNF-α production (in words)” value is given as “inhibit; also recorded: moderate levels of inhibition”. In the series on PHA activated T-cells, the “Inhibition of T-cell proliferation (in words)” value was “strongly inhibited; also recorded: strong inhibitory activity”.
On to `C[C@]12C=CC(=O)C=C1CC[C@@H]1[C@@H]2[C@@H](O)C[C@@]2(C)[C@H]1CC[C@]2(O)C(=O)CO` [Prednisolone, reference compound], for which the IC50 in the series on PHA activated T-cells (setting [4]) is < 3.1 µg/mL.

Broadly, the melting point is the temperature, or range, at which the solid turns liquid. The inhibition is the drop in the measured response relative to a control, in per cent.
